Patent US8791050B2, “Herbicidal compositions” (priority 1998, dated 2014)

Tests used:
Type in all cases: in vivo
[1] = tested on: Echinochloa colona (ECHCO); assay: Herbicidal effect in rice, field trial, Echinochloa colona; details: post-emergence 2-4-leaf stage
Experimental: (§1) The herbicidal efficacy of the active compounds or active compound mixtures was scored visually using the treated plots in comparison to untreated control plots. The damage and development of all above-ground parts of the plants were recorded. Scoring was carried out using a percentage scale (100% effect=all plants killed; 50% effect=50% of the plants and the green parts of the plants killed; 0% effect=no noticeable effect=like control plot). The scores of in each case 4 plots were averaged.
(§2) If the observed activity values already exceed the formal sum of the values for the trials with the individual applications, they also exceed the expected value according to Colby which is calculated using the following formula and which is likewise considered to be an indication of synergism (cf. S. R. Colby; in Weeds 15 (1967) pp. 20 to 22): E=A+B−(A·B/100)
(§3) Crop plants were grown outdoors on plots under natural outdoor conditions, and seeds or rhizome pieces of typical harmful plants were laid out or the natural weed growth was utilized. Treatment with the compositions according to the invention was carried out after the harmful plants had emerged and the crop plants were, generally, at the 2- to 4-leaf stage; in some cases (as stated), application of individual active compounds or active compound combinations was carried out pre-emergence (cf. Example 1) or as a sequential treatment partly pre-emergence and/or post-emergence.
(§4) After the application, for example 2, 4, 6 and 8 weeks after the application, the effect of the preparations was scored visually by comparison with untreated controls (cf. scoring in Example 1). In the field trial as well, the compositions according to the invention have synergistic herbicidal activity against a broad spectrum of economically important weed grasses and broad-leaved weeds. […] Moreover, the effects in essential phases of the scoring period were above the expected values according to Colby (cf. scoring in Example 1), also indicating synergism. In contrast, the crop plants were, as a consequence of the treatments with the herbicidal compositions, damaged only to a small degree, if at all.

Eleusine indica (ELEIN) = assay: Herbicidal effect in rice, field trial, Eleusine indica; details: Table 4 field trial, post-emergence 2-4-leaf stage, scoring 28 days after application
Experimental: as §1, §2, §3
(§5) After the application, for example 2, 4, 6 and 8 weeks after the application, the effect of the preparations was scored visually by comparison with untreated controls (cf. scoring in Example 1). In the field trial as well, the compositions according to the invention have synergistic herbicidal activity against a broad spectrum of economically important weed grasses and broad-leaved weeds. […] Moreover, the effects in essential phases of the scoring period were above the expected values according to Colby (cf. scoring in Example 1), also indicating synergism. […]

[2] = tested on: Echinochloa crus-galli (ECHCG); assay: Herbicidal effect in rice, greenhouse trial, Echinochloa crus-galli; details: Table 6 greenhouse trial, post-emergence 3-4-leaf stage, scoring 20 days after application
Experimental: as §1, §2
(§6) Seeds or rhizome pieces of monocotyledonous and dicotyledonous weeds are placed in sandy loam soil in pots, covered with soil and grown in a greenhouse under good growth conditions (temperature, atmospheric humidity, water supply). Three weeks after sowing, the test plants are treated at the three-leaf stage with the compositions according to the invention. The compositions according to the invention, formulated as wettable powders or as emulsion concentrates, are sprayed, at various dosages, onto the green parts of the plant at an application rate of 600 to 800 l of water/ha (converted). After the test plants have been in the greenhouse for about 3 to 4 weeks under ideal growth conditions, the effect of the preparations is scored visually by comparison with untreated controls. The compositions according to the invention also have a good herbicidal post-emergence activity against a broad spectrum of economically important weed grasses and weeds.
(§7) Frequently, activities of the combinations according to the invention are observed which exceed the formal sum of the activities when the herbicides are applied individually.

rice [3] = assay: Selectivity: damage to rice, greenhouse trial; details: scoring 20 days after application
rice [4] = assay: Selectivity: damage to rice, field trial
Experimental: The damage and development of all above-ground parts of the plants were recorded. […] The scores of in each case 4 plots were averaged.
Crop plants were grown outdoors on plots under natural outdoor conditions, and seeds or rhizome pieces of typical harmful plants were laid out or the natural weed growth was utilized.

[5] = tested on: Sagittaria pygmaea (SAGPY); assay: Herbicidal effect in rice, greenhouse trial, Sagittaria pygmaea; details: Table 5 greenhouse trial, post-emergence 1-2-leaf stage, scoring 20 days after application
Experimental: as §1, §2
as §6, with “Three weeks after sowing, the test plants are treated at the three-leaf stage with the compositions according to the invention.” left out
as §7

[6] = tested on: Echinochloa crus-galli (ECHCG); assay: Herbicidal effect in rice, field trial, Echinochloa crus-galli
Experimental: as §1, §2, §3, §4

Cyperus iria (CYPIR) = assay: Herbicidal effect in rice, field trial, Cyperus iria; details: Table 14 field trial, post-emergence 3-leaf stage, scoring 42 days after application
Experimental: as §1, §2, §3, §5

[7] = tested on: Amaranthus retroflexus (AMARE); assay: Herbicidal effect in rice, field trial, Amaranthus retroflexus; details: post-emergence 2-4-leaf stage, scoring 28 days after application
Experimental: as §1, §2, §3, §5

[8] = tested on: Sesbania exaltata (SEBEX); assay: Herbicidal effect in rice, field trial, Sesbania exaltata; details: Table 10 field trial, post-emergence 2-4-leaf stage, scoring 28 days after application, 32 g of AS/ha
Experimental: as §1, §2
(§8) Crop plants were grown outdoors on plots under natural outdoor conditions, and seeds or rhizome pieces of typical harmful plants were laid out or the natural weed growth was utilized. […]
(§9) After the application, for example 2, 4, 6 and 8 weeks after the application, the effect of the preparations was scored visually by comparison with untreated controls (cf. scoring in Example 1). […]

[9] = tested on: Ipomea hederaceae (IPOHE); assay: Herbicidal effect in rice, field trial, Ipomea hederaceae; details: Table 8 field trial, post-emergence 2-4-leaf stage, scoring 28 days after application, 30 g of AS/ha
Experimental: as §1, §2, §8, §9

[10] = Table 6 greenhouse trial, post-emergence 3-4-leaf stage, 18 g of AS/ha
[11] = Table 6 greenhouse trial, post-emergence 3-4-leaf stage, 37 g of AS/ha
[12] = Table 6 greenhouse trial, post-emergence 3-4-leaf stage, 75 g of AS/ha
[13] = Table 12 field trial, post-emergence 3-leaf stage, scoring 12 days after application, 20 g of AS/ha
[14] = Table 12 field trial, post-emergence 3-leaf stage, scoring 12 days after application, 40 g of AS/ha
[15] = Table 12 field trial, post-emergence 3-leaf stage, scoring 12 days after application, 80 g of AS/ha
[16] = Table 12 field trial, post-emergence 3-leaf stage, scoring 12 days after application, 1250 g of AS/ha
[17] = Table 12 field trial, post-emergence 3-leaf stage, scoring 12 days after application, 2500 g of AS/ha
[18] = Table 12 field trial, post-emergence 3-leaf stage, scoring 12 days after application, 5000 g of AS/ha
[19] = Table 13 field trial, post-emergence 1-2-leaf stage, scoring 28 days after application, 37.5 g of AS/ha

CCOC(=O)[C@@H](C)Oc1ccc(Oc2nc3ccc(Cl)cc3o2)cc1 [(A1.1), fenoxaprop-P-ethyl]
Herbicidal effect (in %) against ECHCO ([1]; Table 2 field trial, scoring 21 days after application, 45 g of AS/ha): 51%
Herbicidal effect (in %) against ECHCO ([1]; Table 3 field trial, scoring 28 days after application, 45 g of AS/ha): 83%
Herbicidal effect (in %) against ELEIN (Eleusine indica (ELEIN); 45 g of AS/ha): 80%
Herbicidal effect (in %) against ECHCG ([2]; 18 g of AS/ha): 15%
Herbicidal effect (in %) against ECHCG ([2]; 37 g of AS/ha): 40%
Herbicidal effect (in %) against ECHCG ([2]; 75 g of AS/ha): 82%
Damage (in %) to rice (rice [3]; Table 5 greenhouse trial, post-emergence 1-2-leaf stage, 37.5 g of AS/ha): 0%
Damage (in %) to rice (rice [3]; Table 5 greenhouse trial, post-emergence 1-2-leaf stage, 75 g of AS/ha): 8%
Damage (in %) to rice (rice [3]; [10]): 0%
Damage (in %) to rice (rice [3]; [11]): 0%
Damage (in %) to rice (rice [3]; [12]): 3%
Damage (in %) to rice (rice [4]; Table 2 field trial, post-emergence 2-4-leaf stage, scoring 21 days after application, 45 g of AS/ha): 0%
Damage (in %) to rice (rice [4]; Table 3 field trial, post-emergence 2-4-leaf stage, scoring 28 days after application, 45 g of AS/ha): 21%
Damage (in %) to rice (rice [4]; Table 4 field trial, post-emergence 2-4-leaf stage, scoring 28 days after application, 45 g of AS/ha): 21%
Damage (in %) to rice (rice [4]; [13]): 0%
Damage (in %) to rice (rice [4]; [14]): 0%
Damage (in %) to rice (rice [4]; [15]): 5%
Herbicidal effect (in %) against SAGPY ([5]; 37.5 g of AS/ha): 0%
Herbicidal effect (in %) against SAGPY ([5]; 75 g of AS/ha): 0%
Herbicidal effect (in %) against ECHCG [6, 13]: 80%
Herbicidal effect (in %) against ECHCG [6, 14]: 95%
Herbicidal effect (in %) against ECHCG [6, 15]: 97%

CCC(=O)Nc1ccc(Cl)c(Cl)c1 [(B1.7), propanil]
Damage (in %) to rice (rice [4]; [16]): 0%
Damage (in %) to rice (rice [4]; [17]): 5%
Damage (in %) to rice (rice [4]; [18]): 5%
Herbicidal effect (in %) against ECHCG [6, 16]: 0%
Herbicidal effect (in %) against ECHCG [6, 17]: 10%
Herbicidal effect (in %) against ECHCG [6, 18]: 30%

CCN(CC)C(=O)SCc1ccc(Cl)cc1 [(B1.11), thiobencarb]
Herbicidal effect (in %) against CYPIR (Cyperus iria (CYPIR); 1500 g of AS/ha): 78%
Herbicidal effect (in %) against AMARE ([7]; Table 7 field trial, 3000 g of AS/ha): 83%

CCN(C(=O)n1nnn(-c2ccccc2Cl)c1=O)C1CCCCC1 [(B1.15), fentrazamid]
Damage (in %) to rice (rice [3]; Table 5 greenhouse trial, post-emergence 1-2-leaf stage, 25 g of AS/ha): 0%
Damage (in %) to rice (rice [3]; Table 5 greenhouse trial, post-emergence 1-2-leaf stage, 50 g of AS/ha): 0%
Damage (in %) to rice (rice [3]; Table 5 greenhouse trial, post-emergence 1-2-leaf stage, 100 g of AS/ha): 0%
Herbicidal effect (in %) against SAGPY ([5]; 25 g of AS/ha): 0%
Herbicidal effect (in %) against SAGPY ([5]; 50 g of AS/ha): 40%
Herbicidal effect (in %) against SAGPY ([5]; 100 g of AS/ha): 80%

CCC/C(=N\OCC(C)Oc1ccc(Cl)cc1)C1=C(O)CC(C2CCCSC2)CC1=O (stereo not drawn) [(B1.31), clefoxidim]
Herbicidal effect (in %) against ECHCG ([2]; 18 g of AS/ha): 0%
Herbicidal effect (in %) against ECHCG ([2]; 37 g of AS/ha): 10%
Herbicidal effect (in %) against ECHCG ([2]; 75 g of AS/ha): 83%
Damage (in %) to rice (rice [3]; [10]): 0%
Damage (in %) to rice (rice [3]; [11]): 0%
Damage (in %) to rice (rice [3]; [12]): 0%

Cc1nn(-c2cc(CC(Cl)C(=O)O)c(Cl)cc2F)c(=O)n1C(F)F (stereo not drawn) [(B2.2), carfentrazone]
Damage (in %) to rice (rice [4]; Table 10 field trial, post-emergence 2-4-leaf stage, scoring 28 days after application, 32 g of AS/ha): 13%
Herbicidal effect (in %) against SEBEX [8]: 93%

COc1nc(NC(=O)NS(=O)(=O)c2ccccc2C(F)(F)F)nc(C(F)(F)F)n1 [(B2.4), tritosulfuron]
Damage (in %) to rice (rice [4]; [19]): 0%
Herbicidal effect (in %) against ECHCG [6, 19]: 0%

O=C(O)COc1nc(Cl)c(Cl)cc1Cl [(B3.1), triclopyr]
Herbicidal effect (in %) against AMARE ([7]; Table 9 field trial, 50 g of AS/ha): 66%
Damage (in %) to rice (rice [4]; Table 9 field trial, post-emergence 2-4-leaf stage, scoring 28 days after application, 50 g of AS/ha): 18%

CCS(=O)(=O)Oc1ccc2c(c1)C(C)(C)CO2 [(B3.2), benfuresate]
Herbicidal effect (in %) against ECHCO ([1]; Table 2 field trial, scoring 21 days after application, 400 g of AS/ha): 0%
Damage (in %) to rice (rice [4]; in vivo): 0%

CC1(C)CON(Cc2ccccc2Cl)C1=O [(B4.2), clomazone]
Herbicidal effect (in %) against CYPIR (Cyperus iria (CYPIR); 300 g of AS/ha): 30%
Damage (in %) to rice (rice [4]; in vivo): 0%

CC(C)Oc1cc(-n2nc(C(C)(C)C)oc2=O)c(Cl)cc1Cl [(B4.8), oxadiazon]
Herbicidal effect (in %) against CYPIR (Cyperus iria (CYPIR); 250 g of AS/ha): 75%
Damage (in %) to rice (rice [4]; in vivo): 0%

COc1cc(OC)nc(Oc2cccc(Oc3nc(OC)cc(OC)n3)c2C(=O)ON=C(c2ccccc2)c2ccccc2)n1 [(B4.25), pyribenzoxim]
Herbicidal effect (in %) against IPOHE [9]: 78%
Damage (in %) to rice (rice [4]; Table 8 field trial, post-emergence 2-4-leaf stage, scoring 28 days after application, 30 g of AS/ha): 0%

CC1=C(c2ccccc2)C(=O)N(C(C)(C)c2cc(Cl)cc(Cl)c2)CO1 [(B4.26), oxaziclomefone]
Herbicidal effect (in %) against ELEIN (Eleusine indica (ELEIN); 30 g of AS/ha): 0%
Herbicidal effect (in %) against ELEIN (Eleusine indica (ELEIN); 60 g of AS/ha): 37%
Damage (in %) to rice (rice [4]; Table 4 field trial, post-emergence 2-4-leaf stage, scoring 28 days after application, 30 g of AS/ha): 15%
Damage (in %) to rice (rice [4]; Table 4 field trial, post-emergence 2-4-leaf stage, scoring 28 days after application, 60 g of AS/ha): 19%

oxadiargyl [(B4.9)]
Herbicidal effect (in %) against ECHCO ([1]; Table 3 field trial, scoring 28 days after application, 25 g of AS/ha): 33%
Herbicidal effect (in %) against ECHCO ([1]; Table 3 field trial, scoring 28 days after application, 50 g of AS/ha): 43%
Herbicidal effect (in %) against ECHCO ([1]; Table 3 field trial, scoring 28 days after application, 100 g of AS/ha): 48%
